SMILES | melting point
CSCCc1nc(-c2cccc(Cl)c2)c(-c2ccnc(N)c2)s1 | 96 to 97 °C
CSCc1nc(-c2cccc(Cl)c2)c(-c2ccnc(N)c2)s1 | 111 to 112 °C
CC(F)(F)c1nc(-c2cccc(Cl)c2)c(-c2ccnc(N)c2)s1 | 131 to 132 °C
CCC(=O)Nc1cc(-c2sc(C3CCNCC3)nc2-c2cccc(Cl)c2)ccn1.Cl.Cl | 202 to 203 °C
Cc1cccc(-c2nc(NC(=O)NCCCl)sc2-c2ccnc(C)c2)c1 | 149 to 151 °C
CCc1nc(-c2cccc(C)c2)c(-c2ccnc(NC(=O)OC(C)(C)C)c2)s1 [Example 3, 5-[2-(tert-butoxycarbonylamino)-4-pyridyl]-2-ethyl-4-(3-methylphenyl)-1,3-thiazole] | 162 to 163 °C
CCc1nc(-c2ccc(F)cc2)c(-c2ccnc(NC(C)=O)c2)s1 [Example 82-2, N-[4-[2-ethyl-4-(4-fluorophenyl)-1,3-thiazol-5-yl]-2-pyridyl]acetamide] | 190 to 191 °C
CCc1nc(-c2cccc(C(F)(F)F)c2)c(-c2ccnc(NC(C)=O)c2)s1 [Example 82-3, N-[4-[2-ethyl-4-(3-trifluoromethylphenyl)-1,3-thiazol-5-yl]-2-pyridyl]acetamide] | 146 to 147 °C
CCc1nc(-c2ccc(F)c(C)c2)c(-c2ccnc(NC(C)=O)c2)s1 [Example 82-4, N-[4-[2-ethyl-4-(4-fluoro-3-methylphenyl)-1,3-thiazol-5-yl]-2-pyridyl]acetamide] | 142 to 143 °C
CCc1nc(-c2cccc(F)c2)c(-c2ccnc(NC(C)=O)c2)s1 [Example 82-5, N-[4-[2-ethyl-4-(3-fluorophenyl)-1,3-thiazol-5-yl]-2-pyridyl]acetamide] | 141 to 142 °C
CCc1nc(-c2ccc(Cl)cc2)c(-c2ccnc(NC(C)=O)c2)s1 [Example 82-6, N-[4-[4-(4-chlorophenyl)-2-ethyl-1,3-thiazol-5-yl]-2-pyridyl]acetamide] | 190 to 191 °C
CCc1cccc(-c2nc(CC)sc2-c2ccnc(NC(C)=O)c2)c1 [Example 82-7, N-[4-[2-ethyl-4-(3-ethylphenyl)-1,3-thiazol-5-yl]-2-pyridyl]acetamide] | 112 to 113 °C
CCc1nc(-c2cccc(C(C)C)c2)c(-c2ccnc(NC(C)=O)c2)s1 [Example 82-8, N-[4-[2-ethyl-4-[3-(1-methylethyl)phenyl]-1,3thiazol-5-yl]-2-pyridyl]acetamide] | 116 to 117 °C
CCCc1cccc(-c2nc(CC)sc2-c2ccnc(NC(C)=O)c2)c1 [Example 82-9, N-[4-[2-ethyl-4-(3-propylphenyl)-1,3-thiazol-5-yl]-2-pyridyl]acetamide] | 121 to 122 °C
CC(=O)Nc1cc(-c2sc(C)nc2-c2cccc(C)c2)ccn1 [Example 82-10, N-[4-[2-methyl-4-(3-methylphenyl)-1,3-thiazol-5-yl]-2-pyridyl]acetamide] | 162 to 163 °C
CC(=O)Nc1cc(-c2scnc2-c2cccc(C)c2)ccn1 [Example 82-11, N-[4-[4-(3-methylphenyl)-1,3-thiazol-5-yl]-2-pyridyl]acetamide] | 149 to 150 °C
CSc1ccc(-c2nc(-c3cccc(C)c3)c(-c3ccnc(NC(C)=O)c3)s2)cc1 [Example 82-12, N-[4-[4-(3-methylphenyl)-2-[4-(methylthio)phenyl]-1,3-thiazol-5-yl]-2-pyridyl]acetamide] | 181 to 182 °C

SMILES | melting point
CCC(=O)Nc1cc(-c2sc(CC)nc2-c2ccccc2)ccn1 [Example 84-1, N-[4-(2-ethyl-4-phenyl-1,3-thiazol-5-yl)-2-pyridyl]propionamide] | 139 to 140 °C
CCC(=O)Nc1cc(-c2sc(CC)nc2-c2ccc(F)cc2)ccn1 [Example 84-2, N-[4-[2-ethyl-4-(4-fluorophenyl)-1,3-thiazol-5-yl]-2-pyridyl]propionamide] | 156 to 157 °C
CCC(=O)Nc1cc(-c2sc(CC)nc2-c2cccc(C(F)(F)F)c2)ccn1 [Example 84-3, N-[4-[2-ethyl-4-(3-trifluoromethylphenyl)-1,3-thiazol-5-yl]-2-pyridyl]propionamide] | 126 to 127 °C
CCC(=O)Nc1cc(-c2sc(CC)nc2-c2ccc(F)c(C)c2)ccn1 [Example 84-4, N-[4-[2-ethyl-4-(4-fluoro-3-methylphenyl)-1,3-thiazol-5-yl]-2-pyridyl]propionamide] | 105 to 107 °C
CCC(=O)Nc1cc(-c2sc(CC)nc2-c2cccc(F)c2)ccn1 [Example 84-5, N-[4-[2-ethyl-4-(3-fluorophenyl)-1,3-thiazol-5-yl]-2-pyridyl]propionamide] | 121 to 122 °C
CCC(=O)Nc1cc(-c2sc(CC)nc2-c2ccc(Cl)cc2)ccn1 [Example 84-6, N-[4-[4-(4-chlorophenyl)-2-ethyl-1,3-thiazol-5-yl]-2-pyridyl]propionamide] | 152 to 153 °C
CCC(=O)Nc1cc(-c2sc(CC)nc2-c2cccc(C(C)C)c2)ccn1 [Example 84-7, N-[4-[2-ethyl-4-[3-(1-methylethyl)phenyl]-1,3-thiazol-5-yl]-2-pyridyl]propionamide] | 93 to 94 °C
CCCc1cccc(-c2nc(CC)sc2-c2ccnc(NC(=O)CC)c2)c1 [Example 84-8, N-[4-[2-ethyl-4-(3-propylphenyl)-1,3-thiazol-5-yl]-2-pyridyl]propionamide] | 124 to 125 °C
CCC(=O)Nc1cc(-c2sc(-c3ccc(SC)cc3)nc2-c2cccc(C)c2)ccn1 [Example 84-9, N-[4-[4-(3-methylphenyl)-2-[4-(methylthio)phenyl]-1,3-thiazol-5-yl]-2-pyridyl]propionamide] | 171 to 172 °C
CCCC(=O)Nc1cc(-c2sc(CC)nc2-c2cccc(Cl)c2)ccn1 [Example 86, N-[4-[4-(3-chlorophenyl)-2-ethyl-1,3-thiazol-5-yl]-2-pyridyl]butyramide] | 119 to 120 °C
CCCCC(=O)Nc1cc(-c2sc(CC)nc2-c2cccc(C)c2)ccn1 [Example 87-1, N-[4-[2-ethyl-4-(3-methylphenyl)-1,3-thiazol-5-yl]-2-pyridyl]valeramide] | 81 to 82 °C
CCCCCC(=O)Nc1cc(-c2sc(CC)nc2-c2cccc(C)c2)ccn1 [Example 87-2, N-[4-[2-ethyl-4-(3-methylphenyl)-1,3-thiazol-5-yl]-2-pyridyl]hexanamide] | 84 to 85 °C
CCCCC(=O)Nc1cc(-c2sc(CC)nc2-c2cccc(Cl)c2)ccn1 [Example 88-1, N-[4-[4-(3-chlorophenyl)-2-ethyl-1,3-thiazol-5-yl]-2-pyridyl]valeramide] | 109 to 110 °C
CCCCCC(=O)Nc1cc(-c2sc(CC)nc2-c2cccc(Cl)c2)ccn1 [Example 88-2, N-[4-[4-(3-chlorophenyl)-2-ethyl-1,3-thiazol-5-yl]-2-pyridyl]hexanamide] | 114 to 115 °C
CCc1nc(-c2cccc(C)c2)c(-c2ccnc(NC(=O)CC3CCCC3)c2)s1 [Example 89, N-[4-[2-ethyl-4-(3-methylphenyl)-1,3-thiazol-5-yl]-2-pyridyl]cyclopentylacetamide] | 85 to 86 °C
CCc1nc(-c2cccc(Cl)c2)c(-c2ccnc(NC(=O)CC3CCCC3)c2)s1 [Example 90-1, N-[4-[4-(3-chlorophenyl)-2-ethyl-1,3-thiazol-5-yl]-2-pyridyl]cyclopentylacetamide] | 121 to 122 °C

— patent US7495018B2, “Substituted 1,3-thiazole compounds, their production and use” (Takeda Pharmaceutical Company Limited, priority 2000, dated 2009)
